Source: patent US9695133B2, “Quinazolinone-based oncogenic-RAS-selective lethal compounds and their use” (THE TRUSTEES OF COLUMBIA UNIVERSITY IN THE CITY OF NEW YORK, priority 2012, dated 2017)

What was measured:
[1] = test system: BJeH, BJeHLT, BJeLR and DRD cells; assay type: cell-based; settings: 0.4 μM RSL3, BJeLR vs BJeHLT cells
GFP-ALOX5 = GFP-ALOX5 translocation in BJ-derived cell lines; assay type: cell-based, human
Method: A cDNA of ALOX5 (GeneBank ID: BC130332.1) was cloned into a pBabe-puro vector to express GFP fused ALOX5 (N-terminal GFP fusion) in cells. The plasmid was transfected into PLAT-GP cells (Cell Biolabs Inc., cat # RV-103, San Diego, Calif.) along with a pVSV-G helper plasmid to produce retrovirus harboring the expression plasmid. 0.2 million target cells (BJeH, BJeHLT, BJeLR or HT-1080 cells) were seeded in 10 cm tissue culture dishes and incubated in the tissue culture incubator for 1 day. A frozen stock of retrovirus solution was thawed at 37° C. for 2 minutes, and polybrene (Sigma, cat. # H9268) was added at a final concentration of 8 μg/mL. Culture medium was replaced with virus/polybrene mix and the culture dish was incubated for two hours with rocking every 30 minutes. After 2 hours, 10 mL of growth media was added to culture dish, and the culture was incubated further for 2 days. Cell lines stably expressing GFP-ALOX5 protein were selected using 1.5 μg/mL puromycin and used for the GFP-ALOX5 translocation assay.
ALOX5 is one of the six human ALOX genes and plays a critical role in leukotriene synthesis. In the basal state, the ALOX5 protein remains in the nucleus; however, upon activation, it translocates to the nuclear membrane (Chen et al., 2001). […] Second, calcium chelators were not effective in suppressing erastin-induced cell death (Wolpaw et al., 2011).

BJeLR cells = experiment: Lipid peroxide detection using BODIPY-C11 in BJ-derived cells; assay type: cell-based, human
BJ-derived cell lines = experiment: GSH depletion assay in BJ-derived cell lines; assay type: cell-based, human; settings: BJeLR cells, lethal RSL3 dose
Method: Bar graph: mean+s.d.; n=3. *, P<0.05.
2 million cells were seeded on 10 cm dishes. The next day, cells were treated with compounds to induce GSH depletion followed by harvesting to determine cell number. Two million live cells from each sample were transferred to new tubes, and centrifuged at 1,000 rpm at 4° C. for 5 minutes. The cell pellet was resuspended in 1 mL of PB buffer (10 mM sodium phosphate buffer, 1 mM EDTA, pH 7) and sonicated using 60 Joule energy. The lysate was centrifuged at 13,200 rpm at 4° C. for 10 minutes, and then the cleared lysate was used to determine the amount of GSH in the sample. The QuantiChrome glutathione assay kit (BioAssay Systems, cat # DIGT-250) was used and the product instructions were followed to determine GSH level.

ALOX15B and ALOXE3 = experiment: ALOX15B / ALOXE3 siRNA knockdown and lethal compound sensitivity in HT-1080 cells; assay type: cell-based, human
Method: HT-1080 cells were transfected with siRNA pools targeting either ALOX15B or ALOXE3, and then, treated with the indicated RSL compounds in 2-fold dilution series. 24 hours after compound treatment, alamar blue was added to the culture at a final concentration of 10% in growth media to determine cell viability. The percent growth inhibition was calculated from the fluorescence intensity of each well in 384-well assay plates. Data points represent mean of duplicates.
Small interfering RNA (siRNA) pools targeting ALOX15B and ALOXE3 were obtained from Dharmacon Technologies (Lafayette, Colo.). On the day of reverse-transfection, a cocktail of 1 mL of Opti-MEM (Invitrogen Corp., Carlsbad, Calif.), 6 μL of Lipofectamine RNAiMAX (Invitrogen), and 5 μL of 10 μM siRNA were prepared and transferred to each well of a 6-well plate. The 6-well plate was put in the tissue culture incubator for 20 minutes to allow the formation of transfection mixture. While the complex was forming, HT-1080 cells were trypsinized and the cell number was determined using ViCell (Trypan Blue). 200,000 cells were prepared in 1 mL of growth media with 2× serum, and then, the cell suspension was transferred to each well containing 1 mL of the transfection mix. The 6-well plate was returned to the incubator and the culture grown for 2 days. […]

COC(=O)c1ccc([C@@H]2c3[nH]c4ccccc4c3C[C@@H](C(=O)OC)N2C(=O)CCl)cc1 [RSL3]
selective lethality [1]: exhibited selective lethality in BJeLR cells
GFP-ALOX5 translocation to the nuclear membrane (GFP-ALOX5): caused GFP-ALOX5 translocation to the nuclear membrane
lipid peroxide generation (BODIPY-C11 fluorescence) (BJeLR cells): generation of lipid peroxides
cellular GSH level (BJ-derived cell lines): remained unaffected
effect of ALOX15B knockdown on compound-induced cell death (ALOX15B and ALOXE3): sensitized cells to RSL3-induced cell death
effect of ALOXE3 knockdown on compound-induced cell death (ALOX15B and ALOXE3): suppressed
